How the values were obtained:
Experiment in all cases: relative viability vs DMSO control (72 h) (fraction); higher = more viable cells
SW684 = system: SW684
Procedure, shortened: (§1)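 Sarcoma cell lines were seeded in 384-well plates at densities set to reach 80–90% confluence. After 24 h, 2.5 µl of serially diluted compound was added (source plates 10 mM to 0.0002 mM), and plates were held 72 h at 37 °C, 5% CO2, with 0.1% DMSO vehicle and a 5 µM positive control. Relative viability came from ATPLite readings as percent growth, averaged over up to triplicate wells. Data were rescaled so full viability equals 1 and none equals 0.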

A204 = system: A204
Procedure, shortened: as §1

SK-ES-1 = system: SK-ES-1
Procedure, shortened: as §1

G401 = system: G401
Procedure, shortened: as §1

SK-LMS-1 = system: SK-LMS-1
Procedure, shortened: as §1

HS729 = system: HS729
Procedure, shortened: as §1

SW872 = system: SW872
Procedure, shortened: as §1

MES-SA = system: MES-SA
Procedure, shortened: as §1

SYO-1 = system: SYO-1
Procedure, shortened: as §1

SW1353 = system: SW1353
Procedure, shortened: as §1

SW982 = system: SW982
Procedure, shortened: as §1

KHOS-240S = system: KHOS-240S
Procedure, shortened: as §1

Cc1cc(Nc2ncc(Cl)c(Nc3ccccc3S(=O)(=O)C(C)C)n2)c(OC(C)C)cc1C1CCNCC1 [Ceritinib]
Settings | relative viability
A204, 0.00017 µM | 1.05
A204, 0.00051 µM | 1.07
A204, 0.00152 µM | 1.08
A204, 0.00457 µM | 1.07
A204, 0.01372 µM | 1.07
A204, 0.04115 µM | 1.06
A204, 0.1235 µM | 1.06
A204, 0.3704 µM | 1.04
A204, 1.111 µM | 0.928
A204, 3.333 µM | 0.334
A204, 10 µM | 0.0012
G401, 0.00017 µM | 0.953
G401, 0.00051 µM | 0.932
G401, 0.00152 µM | 0.971
G401, 0.00457 µM | 0.974
G401, 0.01372 µM | 0.972
G401, 0.04115 µM | 0.961
G401, 0.1235 µM | 0.918
G401, 0.3704 µM | 0.788
G401, 1.111 µM | 0.615
G401, 3.333 µM | 0.416
G401, 10 µM | -0.00287
HS729, 0.00017 µM | 0.955
HS729, 0.00051 µM | 1.02
HS729, 0.00152 µM | 1.03
HS729, 0.00457 µM | 1.01
HS729, 0.01372 µM | 1.03
HS729, 0.04115 µM | 1.02
HS729, 0.1235 µM | 0.95
HS729, 0.3704 µM | 0.847
HS729, 1.111 µM | 0.751
HS729, 3.333 µM | 0.626
HS729, 10 µM | 0.0042
KHOS-240S, 0.00017 µM | 0.991
KHOS-240S, 0.00051 µM | 0.992
KHOS-240S, 0.00152 µM | 1
KHOS-240S, 0.00457 µM | 1.01
KHOS-240S, 0.01372 µM | 1.01
KHOS-240S, 0.04115 µM | 1.02
KHOS-240S, 0.1235 µM | 0.9951
KHOS-240S, 0.3704 µM | 0.897
KHOS-240S, 1.111 µM | 0.826
KHOS-240S, 3.333 µM | 0.439
KHOS-240S, 10 µM | 0.0022
MES-SA, 0.00017 µM | 0.953
MES-SA, 0.00051 µM | 0.92
MES-SA, 0.00152 µM | 0.95
MES-SA, 0.00457 µM | 0.951
MES-SA, 0.01372 µM | 0.963
MES-SA, 0.04115 µM | 0.969
MES-SA, 0.1235 µM | 0.96
MES-SA, 0.3704 µM | 0.98
MES-SA, 1.111 µM | 0.94
MES-SA, 3.333 µM | 0.676
MES-SA, 10 µM | -0.00177
SK-ES-1, 0.00017 µM | 0.967
SK-ES-1, 0.00051 µM | 0.984
SK-ES-1, 0.00152 µM | 1
SK-ES-1, 0.00457 µM | 0.974
SK-ES-1, 0.01372 µM | 0.961
SK-ES-1, 0.04115 µM | 0.995
SK-ES-1, 0.1235 µM | 0.914
SK-ES-1, 0.3704 µM | 0.6537
SK-ES-1, 1.111 µM | 0.339
SK-ES-1, 3.333 µM | 0.102
SK-ES-1, 10 µM | 0.000733
SK-LMS-1, 0.00017 µM | 1.01
SK-LMS-1, 0.00051 µM | 1.04
SK-LMS-1, 0.00152 µM | 1.04
SK-LMS-1, 0.00457 µM | 1.03
SK-LMS-1, 0.01372 µM | 1.022
SK-LMS-1, 0.04115 µM | 1.01
SK-LMS-1, 0.1235 µM | 1.05
SK-LMS-1, 0.3704 µM | 0.959
SK-LMS-1, 1.111 µM | 0.96
SK-LMS-1, 3.333 µM | 0.794
SK-LMS-1, 10 µM | 0.00573
SW684, 0.00017 µM | 1.07
SW684, 0.00051 µM | 1.083
SW684, 0.00152 µM | 1.09
SW684, 0.00457 µM | 1.08
SW684, 0.01372 µM | 1.12
SW684, 0.04115 µM | 1.095
SW684, 0.1235 µM | 1.122
SW684, 0.3704 µM | 1.08
SW684, 1.111 µM | 1.15
SW684, 3.333 µM | 0.883
SW684, 10 µM | -0.0212
SW872, 0.00017 µM | 1
SW872, 0.00051 µM | 1.02
SW872, 0.00152 µM | 1.07
SW872, 0.00457 µM | 1.06
SW872, 0.01372 µM | 1.09
SW872, 0.04115 µM | 1.04
SW872, 0.1235 µM | 1
SW872, 0.3704 µM | 0.946
SW872, 1.111 µM | 0.8717
SW872, 3.333 µM | 0.631
SW872, 10 µM | -0.00807
SW982, 0.00017 µM | 0.974
SW982, 0.00051 µM | 0.943
SW982, 0.00152 µM | 0.946
SW982, 0.00457 µM | 0.92
SW982, 0.01372 µM | 0.959
SW982, 0.04115 µM | 0.9674
SW982, 0.1235 µM | 0.902
SW982, 0.3704 µM | 0.765
SW982, 1.111 µM | 0.64
SW982, 3.333 µM | 0.311
SW982, 10 µM | 0.00217
SW1353, 0.00017 µM | 0.94
SW1353, 0.00051 µM | 0.939
SW1353, 0.00152 µM | 0.969
SW1353, 0.00457 µM | 0.953
SW1353, 0.01372 µM | 0.948
SW1353, 0.04115 µM | 0.953
SW1353, 0.1235 µM | 0.932
SW1353, 0.3704 µM | 0.89
SW1353, 1.111 µM | 0.901
SW1353, 3.333 µM | 0.137
SW1353, 10 µM | 0.00227
SYO-1, 0.00017 µM | 1.02
SYO-1, 0.00051 µM | 1.02
SYO-1, 0.00152 µM | 1.06
SYO-1, 0.00457 µM | 1.07
SYO-1, 0.01372 µM | 1.05
SYO-1, 0.04115 µM | 1.01
SYO-1, 0.1235 µM | 0.987
SYO-1, 0.3704 µM | 0.919
SYO-1, 1.111 µM | 0.882
SYO-1, 3.333 µM | 0.51
SYO-1, 10 µM | -0.00767

Source: the supplement of paper PMC10883282
